Experimental data reported in patent publication US5358951A, “Angiotensin II receptor blocking 2, 3, 6 substituted quinazolinones” (American Cyanamid Company, priority 1993, dated 1994).
Structures can show the parent of a compound that is named as a salt.

Tested on: vasopressor response of angiotensin II
Assay: AII Challenge: antagonism of angiotensin II vasopressor response;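 as to Response Average Change: post-dose Angiotensin II-evoked rise in systolic blood pressure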
Assay type: in vivo
Details: for inhibition in vivo at 0.5 mg/kg: 0.5 mg/kg i.v.; for inhibition in vivo at 0.3 mg/kg: 0.3 mg/kg i.v.
How it was run: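 Conscious male SHR (16-20 weeks) with aortic and caval cannulae received angiotensin II at 0.05 and 0.1 ug/kg i.v. before and 30-300 min after compound dosing (i.v., i.p. or oral). Blockade is expressed as % of each rat's predose rise in systolic pressure.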

[1] = 1 mg/kg P.O., AII 0.05 mcg/kg IV, 30 min post dose, sodium salt
[2] = 1 mg/kg P.O., AII 0.05 mcg/kg IV, 90 min post dose, sodium salt
[3] = 1 mg/kg P.O., AII 0.05 mcg/kg IV, 180 min post dose, sodium salt
[4] = 1 mg/kg P.O., AII 0.05 mcg/kg IV, 240 min post dose, sodium salt
[5] = 1 mg/kg P.O., AII 0.1 mcg/kg IV, 30 min post dose, sodium salt
[6] = 1 mg/kg P.O., AII 0.1 mcg/kg IV, 240 min post dose, sodium salt
[7] = 1 mg/kg i.v., AII 0.05 mcg/kg IV, 60 min post dose
[8] = Rattus norvegicus, iv, 0.5 h, 1 mg/kg i.v., AII 0.05 mcg/kg IV, 30 min post dose
[9] = Rattus norvegicus, iv, 0.5 h, 1 mg/kg i.v., AII 0.1 mcg/kg IV, 30 min post dose
[10] = Rattus norvegicus, iv, 1 h, 1 mg/kg i.v., AII 0.05 mcg/kg IV, 60 min post dose
[11] = Rattus norvegicus, iv, 1 h, 1 mg/kg i.v., AII 0.1 mcg/kg IV, 60 min post dose
[12] = Rattus norvegicus, iv, 2 h, 1 mg/kg i.v., AII 0.05 mcg/kg IV, 120 min post dose
[13] = Rattus norvegicus, iv, 2 h, 1 mg/kg i.v., AII 0.1 mcg/kg IV, 120 min post dose
[14] = Rattus norvegicus, iv, 3 h, 1 mg/kg i.v., AII 0.05 mcg/kg IV, 180 min post dose
[15] = Rattus norvegicus, iv, 3 h, 1 mg/kg i.v., AII 0.1 mcg/kg IV, 180 min post dose
[16] = Rattus norvegicus, iv, 4 h, 1 mg/kg i.v., AII 0.1 mcg/kg IV, 240 min post dose
[17] = Rattus norvegicus, iv, 5 h, 1 mg/kg i.v., AII 0.05 mcg/kg IV, 300 min post dose
[18] = Rattus norvegicus, iv, 5 h, 1 mg/kg i.v., AII 0.1 mcg/kg IV, 300 min post dose
[19] = Rattus norvegicus, iv, […], AII 0.1 mcg/kg IV, 90 min post dose
[20] = Rattus norvegicus, iv, […], 1 mg/kg i.v., AII 0.05 mcg/kg IV, 90 min post dose
[21] = Rattus norvegicus, iv, […], 1 mg/kg i.v., AII 0.1 mcg/kg IV, 90 min post dose

**Q.** What does the source list for `CCCCc1nc2ccc([C@@]3(C)C[C@@H]4CCCN4O3)cc2c(=O)n1Cc1ccc(-c2ccccc2-c2nnn[nH]2)cc1` (relative stereo) [Example 73, Cis-2-Butyl-6-(hexahydro-2-methylpyrrolo[1,2-b]isoxazol-2-yl)-3-[[2'-(1H-(tetrazol-5-yl)[1,1'-biphenyl-4-yl]methyl]-4(3H)-quinazolinone sodium salt]?
**A.** % Inhibition [1]: 31%; Response Average Change [1]: 22.5 mmHg; Response Average Change (1 mg/kg P.O., AII 0.05 mcg/kg IV, 60 min post dose, sodium salt): 12.5 mmHg; % Inhibition [2]: 38%; Response Average Change [2]: 20 mmHg; Response Average Change (1 mg/kg P.O., AII 0.05 mcg/kg IV, 120 min post dose, sodium salt): 12.5 mmHg; % Inhibition [3]: 23%; Response Average Change [3]: 25 mmHg; % Inhibition [4]: 15%; Response Average Change [4]: 27.5 mmHg; Response Average Change (1 mg/kg P.O., AII 0.05 mcg/kg IV, 300 min post dose): 25 mmHg; % Inhibition [5]: 27%; Response Average Change [5]: 27.5 mmHg; Response Average Change (1 mg/kg P.O., AII 0.1 mcg/kg IV, 60 min post dose, sodium salt): 20 mmHg; Response Average Change (1 mg/kg P.O., AII 0.1 mcg/kg IV, 90 min post dose, sodium salt): 22.5 mmHg; Response Average Change (1 mg/kg P.O., AII 0.1 mcg/kg IV, 120 min post dose): 22.5 mmHg; Response Average Change (1 mg/kg P.O., AII 0.1 mcg/kg IV, 180 min post dose, sodium salt): 22.5 mmHg; % Inhibition [6]: 33%; Response Average Change [6]: 25 mmHg; Response Average Change (1 mg/kg P.O., AII 0.1 mcg/kg IV, 300 min post dose): 22.5 mmHg; % Inhibition [7]: 83%; inhibition in vivo at 0.5 mg/kg (Rattus norvegicus, iv, 0.5 h, AII 0.05 mcg/kg IV, 30 min post dose): 73%; inhibition in vivo at 0.5 mg/kg (Rattus norvegicus, iv, 0.5 h, AII 0.1 mcg/kg IV, 30 min post dose): 67%; inhibition in vivo at 1 mg/kg [8]: 83%; inhibition in vivo at 1 mg/kg [9]: 74%; inhibition in vivo at 0.1 mg/kg (Rattus norvegicus, iv, 1 h, 0.1 mg/kg i.v., AII 0.05 mcg/kg IV, 60 min post dose): 40%; inhibition in vivo at 0.3 mg/kg (Rattus norvegicus, iv, 1 h, AII 0.1 mcg/kg IV, 60 min post dose): 25%; inhibition in vivo at 0.5 mg/kg (Rattus norvegicus, iv, 1 h, AII 0.05 mcg/kg IV, 60 min post dose): 71%; inhibition in vivo at 1 mg/kg [10]: 83%; inhibition in vivo at 1 mg/kg [11]: 65%; inhibition in vivo at 0.3 mg/kg (Rattus norvegicus, iv, 2 h, AII 0.05 mcg/kg IV, 120 min post dose): 41%; inhibition in vivo at 0.3 mg/kg (Rattus norvegicus, iv, 2 h, AII 0.1 mcg/kg IV, 120 min post dose): 38%; inhibition in vivo at 1 mg/kg [12]: 83%; inhibition in vivo at 1 mg/kg [13]: 86%; inhibition in vivo at 0.3 mg/kg (Rattus norvegicus, iv, 3 h, AII 0.05 mcg/kg IV, 180 min post dose): 36%; inhibition in vivo at 1 mg/kg [14]: 72%; inhibition in vivo at 1 mg/kg [15]: 42%; inhibition in vivo at 0.3 mg/kg (Rattus norvegicus, iv, 4 h, AII 0.05 mcg/kg IV, 240 min post dose): 23%; inhibition in vivo at 0.5 mg/kg (Rattus norvegicus, iv, 4 h, AII 0.1 mcg/kg IV, 240 min post dose): 39%; inhibition in vivo at 1 mg/kg [16]: 74%; inhibition in vivo at 1 mg/kg [17]: 50%; inhibition in vivo at 1 mg/kg [18]: 60%; inhibition in vivo at 0.3 mg/kg (Rattus norvegicus, iv, […], AII 0.05 mcg/kg IV, 90 min post dose): 48%; inhibition in vivo at 0.3 mg/kg [19]: 29%; inhibition in vivo at 0.5 mg/kg [19]: 50%; inhibition in vivo at 1 mg/kg [20]: 83%; inhibition in vivo at 1 mg/kg [21]: 79%; inhibition in vivo at 1 mg/kg (Rattus norvegicus, po, 1 h, 1 mg/kg P.O., AII 0.05 mcg/kg IV, 60 min post dose): 62%; inhibition in vivo at 1 mg/kg (Rattus norvegicus, po, 1 h, 1 mg/kg P.O., AII 0.1 mcg/kg IV, 60 min post dose): 47%; inhibition in vivo at 1 mg/kg (Rattus norvegicus, po, 2 h, 1 mg/kg P.O., AII 0.05 mcg/kg IV, 120 min post dose): 62%; inhibition in vivo at 1 mg/kg (Rattus norvegicus, po, 2 h, 1 mg/kg P.O., AII 0.1 mcg/kg IV, 120 min post dose): 40%; inhibition in vivo at 1 mg/kg (Rattus norvegicus, po, 3 h, 1 mg/kg P.O., AII 0.1 mcg/kg IV, 180 min post dose): 40%; inhibition in vivo at 1 mg/kg (Rattus norvegicus, po, 5 h, 1 mg/kg P.O., AII 0.05 mcg/kg IV, 300 min post dose): 23%; inhibition in vivo at 1 mg/kg (Rattus norvegicus, po, 5 h, 1 mg/kg P.O., AII 0.1 mcg/kg IV, 300 min post dose): 40%; inhibition in vivo at 1 mg/kg (Rattus norvegicus, po, […], 1 mg/kg P.O., AII 0.1 mcg/kg IV, 90 min post dose): 40%

**Q.** `CCCCc1nc2ccc([C@@]3(CC)C[C@@H]4CCCN4O3)cc2c(=O)n1Cc1ccc(-c2ccccc2-c2nnn[nH]2)cc1` (relative stereo) [Example 71, Cis-2-butyl-6-(2-ethylhexahydropyrrolo[1,2b]isoxazol-2-yl)-3-[[2'-[1-(1H-tetrazol-5-yl)][1,1'-biphenyl]-4-yl]methyl]-4(3H)-quinazolinone] was tested. Which “Response Average Change” value (1 mg/kg i.v., AII 0.05 mcg/kg IV, 30 min post dose) did it give?
**A.** 20 mmHg

**Q.** And the “Response Average Change” value [7]?
**A.** 5 mmHg

**Q.** And the “Response Average Change” value (1 mg/kg i.v., AII 0.05 mcg/kg IV, 90 min post dose)?
**A.** 30 mmHg

**Q.** What about the “Response Average Change” value (1 mg/kg i.v., AII 0.05 mcg/kg IV, 120 min post dose) of the same compound?
**A.** 15 mmHg

**Q.** What about the “Response Average Change” value (1 mg/kg i.v., AII 0.05 mcg/kg IV, 180 min post dose) of the same compound?
**A.** 15 mmHg

**Q.** And the “Response Average Change” value (1 mg/kg i.v., AII 0.05 mcg/kg IV, 240 min post dose)?
**A.** 15 mmHg

**Q.** What about the “Response Average Change” value (1 mg/kg i.v., AII 0.05 mcg/kg IV, 300 min post dose) of the same compound?
**A.** 20 mmHg

**Q.** What about the “Response Average Change” value (1 mg/kg i.v., AII 0.1 mcg/kg IV, 30 min post dose) of the same compound?
**A.** 15 mmHg

**Q.** And the “Response Average Change” value (1 mg/kg i.v., AII 0.1 mcg/kg IV, 60 min post dose)?
**A.** 15 mmHg

**Q.** What about the “Response Average Change” value (1 mg/kg i.v., AII 0.1 mcg/kg IV, 90 min post dose) of the same compound?
**A.** 20 mmHg

**Q.** What about the “Response Average Change” value (1 mg/kg i.v., AII 0.1 mcg/kg IV, 120 min post dose) of the same compound?
**A.** 10 mmHg

**Q.** What about the “Response Average Change” value (1 mg/kg i.v., AII 0.1 mcg/kg IV, 180 min post dose) of the same compound?
**A.** 15 mmHg

**Q.** What about the “Response Average Change” value (1 mg/kg i.v., AII 0.1 mcg/kg IV, 240 min post dose) of the same compound?
**A.** 22.5 mmHg

**Q.** What about the “Response Average Change” value (1 mg/kg i.v., AII 0.1 mcg/kg IV, 300 min post dose) of the same compound?
**A.** 23.5 mmHg

**Q.** What about the inhibition in vivo at 1 mg/kg [8] of the same compound?
**A.** 53%

**Q.** And the inhibition in vivo at 1 mg/kg [9]?
**A.** 60%

**Q.** And the inhibition in vivo at 1 mg/kg [10]?
**A.** 88%

**Q.** And the inhibition in vivo at 1 mg/kg [11]?
**A.** 60%

**Q.** And the inhibition in vivo at 1 mg/kg [12]?
**A.** 65%

**Q.** What about the inhibition in vivo at 1 mg/kg [13] of the same compound?
**A.** 73%

**Q.** What about the inhibition in vivo at 1 mg/kg [14] of the same compound?
**A.** 65%

**Q.** What about the inhibition in vivo at 1 mg/kg [15] of the same compound?
**A.** 60%

**Q.** And the inhibition in vivo at 1 mg/kg (Rattus norvegicus, iv, 4 h, 1 mg/kg i.v., AII 0.05 mcg/kg IV, 240 min post dose)?
**A.** 65%

**Q.** What about the inhibition in vivo at 1 mg/kg [16] of the same compound?
**A.** 40%

**Q.** What about the inhibition in vivo at 1 mg/kg [17] of the same compound?
**A.** 53%

**Q.** And the inhibition in vivo at 1 mg/kg [18]?
**A.** 37%

**Q.** What about the inhibition in vivo at 1 mg/kg [20] of the same compound?
**A.** 29%

**Q.** What about the inhibition in vivo at 1 mg/kg [21] of the same compound?
**A.** 47%
